According to ChEMBL document CHEMBL4371026, “Prodrugs of the cancer cell selective anti-cancer agent (Z)-2-(1H-indol-3-yl)-3-(isoquinolin-5-yl)acrylonitrile (A131) are orally efficacious in a mouse model of resistant colon cancer” (Bioorg Med Chem Lett, 2019):

Tests used:
BJ [1] = experiment: Induction of mitosis in transformed human BJ cells assessed as increase in pH3 Ser10 expression at 5 uM after 24 hrs by Western blot analysis relative to control; assay type: functional
BJ [2] = experiment: Induction of autophagy in transformed human BJ cells assessed as increase in LC3-2 to LC3-1 ratio at 5 uM after 24 hrs by Western blot analysis relative to control; assay type: functional
[3] = Prodrug conversion in pH 7.4 10% FBS assessed as formation of A131 measured at 1 hr by LC-MS/MS analysis relative to parent compound; assay type: ADME; settings: cattle, pH 7.4, 1 h
[4] = Stability in human plasma assessed as compound hydrolysis measured within 15 mins; assay type: ADME, cell-free; settings: read-out: Drug degradation
[5] = Prodrug conversion in pH 7.4 10% FBS assessed as formation of A131 measured at 2 hrs by LC-MS/MS analysis relative to parent compound; assay type: ADME; settings: cattle, pH 7.4, 2 h
[6] = Prodrug conversion in human plasma assessed as formation of A131 by measuring apparent half life; assay type: ADME, cell-free
[7] = Prodrug conversion in pH 7.4 10% FBS assessed as formation of A131 by measuring apparent half life; assay type: ADME; settings: cattle
[8] = Stability in simplified simulated gastric fluid assessed as parent compound remaining at 24 hrs; assay type: ADME; settings: read-out: Stability
[9] = Prodrug conversion in pH 7.4 10% FBS assessed as formation of A131 measured at 3 hrs by LC-MS/MS analysis relative to parent compound; assay type: ADME; settings: cattle, pH 7.4, 3 h
[10] = Prodrug conversion in pH 7.4 10% FBS assessed as formation of A131 measured at 6 hrs by LC-MS/MS analysis relative to parent compound; assay type: ADME; settings: cattle, pH 7.4, 6 h
[11] = Half life in simulated gastric fluid TS; assay type: ADME
[12] = Prodrug conversion in mouse plasma assessed as formation of A131 by measuring apparent half life; assay type: ADME, cell-free
[13] = Stability in simulated gastric fluid TS assessed as parent compound remaining at 24 hrs; assay type: ADME; settings: read-out: Stability
[14] = Prodrug conversion in pH 7.4 phosphate buffer saline assessed as formation of A131 by measuring apparent half life; assay type: ADME
[15] = Half life in simplified simulated gastric fluid; assay type: ADME
[16] = Stability in acidic pH assessed as compound hydrolysis; assay type: physicochemical

With `CS(=O)(=O)n1cc(/C(C#N)=C/c2cccc3cnccc23)c2ccccc21` the “fold change (FC)” value (BJ [1]) was 0.4 and the “fold change (FC)” value (BJ [2]) was 0.8.

With `N#C/C(=C\c1cccc2cnccc12)c1c[nH]c2ccccc12` the “fold change (FC)” value (BJ [1]) was 7.3 and the “fold change (FC)” value (BJ [2]) was 5.

For `N#C/C(=C\c1cccc2cnccc12)c1cn(C(=O)C2CCNCC2)c2ccccc12`, the “fold change (FC)” value (BJ [1]) was 10.1, the “fold change (FC)” value (BJ [2]) was 7.3 and the “fold change (FC)” value [3] was 7.03. For the same molecule, the metabolised at 0.25 h [4] was > 90%, the “fold change (FC)” value [5] was 13.17 and the “t1/2(app)” value [6] was 4.2 min. For the same molecule, the “t1/2(app)” value [7] was 1.14 h, the remaining at 24 h [8] was 75% and the “fold change (FC)” value [9] was 14.48. For the same molecule, the “fold change (FC)” value [10] was 16.5, the half-life [11] was > 24 h and the “t1/2(app)” value [12] was 0.208 h. For the same molecule, the remaining at 24 h [13] was 75%, the “t1/2(app)” value [14] was 2.58 h and the half-life [15] was > 24 h. The Stability [16] was “Stable”.

In the case of `N#C/C(=C\c1cccc2cnccc12)c1cn(C(=O)CCN)c2ccccc12`, the “fold change (FC)” value (BJ [1]) is reported as 2.1 and the “fold change (FC)” value (BJ [2]) is reported as 4.1.

For `COCCOCC(=O)n1cc(/C(C#N)=C/c2cccc3cnccc23)c2ccccc21`, the “fold change (FC)” value (BJ [1]) was 12.8 and the “fold change (FC)” value (BJ [2]) was 4.1.

With `Cn1cc(/C(C#N)=C/c2cccc3cnccc23)c2ccccc21` the “fold change (FC)” value (BJ [1]) was 1.1 and the “fold change (FC)” value (BJ [2]) was 1.6.

With `CC(C)(C)OC(=O)NCCC(=O)n1cc(/C(C#N)=C/c2cccc3cnccc23)c2ccccc21` the “fold change (FC)” value (BJ [1]) was 4.8 and the “fold change (FC)” value (BJ [2]) was 3.9.

In the case of `CC(=O)NCCC(=O)n1cc(/C(C#N)=C/c2cccc3cnccc23)c2ccccc21`, the “fold change (FC)” value (BJ [1]) is reported as 2.8 and the “fold change (FC)” value (BJ [2]) is reported as 2.3.

In the case of `CN1CCN(CC(=O)n2cc(/C(C#N)=C/c3cccc4cnccc34)c3ccccc32)CC1`, the “fold change (FC)” value (BJ [1]) is reported as 11.8, the “fold change (FC)” value (BJ [2]) is reported as 5 and the “fold change (FC)” value [3] is reported as 4.68. The metabolised at 0.25 h [4] was > 90%, the “fold change (FC)” value [5] was 7.51 and the “t1/2(app)” value [6] was 3.42 min. The “t1/2(app)” value [7] was 0.9 h, the remaining at 24 h [8] was 50% and the “fold change (FC)” value [9] was 8.39. For the same molecule, the “fold change (FC)” value [10] was 8.84, the half-life [11] was 24 h and the “t1/2(app)” value [12] was 0.088 h. The remaining at 24 h [13] was 50%, the “t1/2(app)” value [14] was 5.3 h and the half-life [15] was 24 h. For the same molecule, the Stability [16] was “Stable”.
